The text below walks through data of US11865182B2, “Product and process for employing GC7 (N1-guanyl-1,7-diaminoheptane) based antigen binding conjugates in cancer therapy” (priority 2017, dated 2024).

Each structure is given as a SMILES string.

The test system of this assay is bi-lateral subcutaneous tumors derived from 779E cells. Description: in-vivo analysis of ADCs cytotoxic effect in subcutaneous mouse model (loss of GFP fluorescence signal, IVIS imaging). Conditions: nude mice, 779E subcutaneous tumors, tail vein injection, after 12 days. The method, then: After purification via gel chromatography, where the cytotoxicity effect of the drug on the eIF5A positive tumor cell compared to eIF5A negative cells was determined by measuring the loss of fluorescence signal of the GFP tagged tumor cells after administration of the ADC in vivo via tail vein injection in mice using an IVIS Spectrum in vivo imaging system.

`N=C(N)NCCCCCCCN` [GC7, N1-guanyl-1,7-diaminoheptane] returned a tumor growth inhibition of 0.4%.
